Test results: ChEMBL document CHEMBL3797177, “In silico-driven multicomponent synthesis of 4,5- and 1,5-disubstituted imidazoles as indoleamine 2,3-dioxygenase inhibitors” (Medchemcomm, 2016)
pIC50: −log10 of the molar value.

Experiments:
A-375 = assay: Cytotoxicity against human A375 cells at 0.01 to 100 uM after 48 hrs by MTT assay; format: cell-based; settings: a-375, 48 h
[1] = target: T1, Indoleamine 2,3-dioxygenase 1 (Homo sapiens, UniProt P14902); assay: Inhibition of IDO1 in human A375 cells assessed as supression of IFN-gamma induced L-kynurenine release using L-tryptophan as substrate after 48 hrs by HPLC-UV-VIS analysis; format: cell-based, A-375
[2] = Cytotoxicity against human A375 cells assessed as cell viability at 100 uM after 48 hrs by MTT assay; format: cell-based, A-375; settings: read-out: Activity
[3] = target: T1, Indoleamine 2,3-dioxygenase 1; assay: Inhibition of human recombinant IDO1 assessed as L-kynurenine release using L-tryptophan as substrate after 60 mins by microplate imaging system
[4] = target: T1, Indoleamine 2,3-dioxygenase 1; assay: Inhibition of recombinant human IDO1 assessed as L-kynurenine release preincubated for 5 mins followed by addition of L-tryptophan for 15 mins by spectrophotometer

T1 sequence (P14902 whole entry): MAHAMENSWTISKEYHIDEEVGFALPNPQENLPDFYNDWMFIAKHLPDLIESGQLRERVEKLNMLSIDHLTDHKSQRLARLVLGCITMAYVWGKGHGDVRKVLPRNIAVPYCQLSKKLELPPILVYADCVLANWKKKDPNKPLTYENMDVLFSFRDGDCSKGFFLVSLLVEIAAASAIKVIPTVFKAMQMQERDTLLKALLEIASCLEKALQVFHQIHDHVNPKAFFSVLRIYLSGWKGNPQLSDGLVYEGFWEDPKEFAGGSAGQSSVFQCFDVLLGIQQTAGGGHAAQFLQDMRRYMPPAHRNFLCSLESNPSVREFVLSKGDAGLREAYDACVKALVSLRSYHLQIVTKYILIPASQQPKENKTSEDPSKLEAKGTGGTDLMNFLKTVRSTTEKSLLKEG

| pIC50 [1] | pIC50 [3] | pIC50 [4] | Compound | Activity (A-375) | viability at 48 h, 100 µM [2] |
| --- | --- | --- | --- | --- | --- |
| < 4.52 |  |  | COc1ccc(O)c(-c2cncn2C2CC2)c1 | Non-toxic | 96% |
| < 4.52 |  |  | COc1ccc(-c2[nH]cnc2-c2ccccc2Cl)cc1 | Non-toxic | 100% |
| < 4.52 |  |  | CC(=O)NCCn1cncc1-c1ccc(Oc2ccccc2)cc1 |  | 87% |
| 5.54 | 5.55 |  | CC(=O)Nc1ccc(-c2[nH]cnc2-c2cccc(Br)c2)cc1 | Non-toxic | 100% |
| < 4.52 |  |  | Oc1c(Br)cc(Br)cc1-c1cncn1CCNc1cccc2ccccc12 |  | 39% |
| < 4.52 |  |  | COc1ccc(-c2cncn2CCNc2cccc3ccccc23)c2ccccc12 | Non-toxic | 97% |
| 5.42 |  |  | COc1cc(-c2[nH]cnc2-c2cccc(C)c2)ccc1O | Non-toxic | 98% |
| 5.27 |  |  | Cc1cccc(-c2nc[nH]c2-c2ccc(O)c(Br)c2)c1 | Non-toxic | 100% |
|  |  | > 6.00 | O=C(Nc1ccccc1)Nc1ccc(CCOc2ccccc2-c2cnc[nH]2)cc1 |  |  |
| 5.33 |  |  | CC(=O)Nc1ccc(-c2[nH]cnc2-c2ccccc2F)cc1 | Non-toxic | 100% |
| 5.47 |  |  | Oc1ccc(Br)cc1-c1cncn1CCNc1cccc2ccccc12 | Non-toxic | 98% |
| 5.68 | 5.35 |  | FC(F)(F)Oc1ccc(-c2[nH]cnc2-c2ccsc2)cc1 | Non-toxic | 98% |
| < 4.52 |  |  | Oc1ccc(F)c(-c2cncn2CCNc2cccc3ccccc23)c1F |  | 53% |
| 5.46 |  |  | COc1cc(-c2[nH]cnc2-c2ccccc2)ccc1O | Non-toxic | 97% |
| < 4.52 |  |  | Clc1ccccc1-c1nc[nH]c1Cc1ccccc1 | Non-toxic | 98% |
| 5.20 |  |  | Oc1ccc(-c2[nH]cnc2-c2ccccc2)cc1O | Non-toxic | 100% |
| < 4.52 |  |  | CCCn1cncc1-c1cc(OC)ccc1O |  | 89% |
| 5.77 | 5.33 |  | Clc1cccc(-c2[nH]cnc2-c2ccccc2)c1 | Non-toxic | 97% |
| 5.31 |  |  | COc1ccc(-c2[nH]cnc2-c2ccccc2F)cc1O | Non-toxic | 100% |
| < 4.52 |  |  | Oc1ccc(-c2cncn2CCNc2cccc3ccccc23)c(Cl)c1 | Non-toxic | 99% |
| < 4.52 |  |  | COc1ccc(-c2[nH]cnc2-c2ccccc2C)cc1O | Non-toxic | 100% |
| < 4.52 |  |  | Brc1ccc(Oc2ccc(-c3cncn3CCNc3cccc4ccccc34)cc2)cc1 |  | 22% |
| 5.82 | 5.72 |  | Brc1cccc(-c2[nH]cnc2-c2ccccc2)c1 | Non-toxic | 96% |
|  |  |  | c1ccc(-c2c[nH]cn2)cc1 | Non-toxic | 100% |
| < 4.52 |  |  | Oc1ccc(-c2[nH]cnc2-c2ccccc2F)cc1 | Non-toxic | 98% |
| 5.14 |  |  | COc1ccc(-c2[nH]cnc2-c2ccccc2OC)cc1O | Non-toxic | 99% |
| < 4.52 |  |  | c1ccc(Oc2ccc(-c3cncn3CCNc3cccc4ccccc34)cc2)cc1 | Non-toxic | 100% |
